The mass density is mass per unit of volume. A word on the refractive index: it is the speed of light in vacuum divided by its phase velocity in the sample.

Results on 3 compounds are retold here after the NIST ThermoML archive (doi:10.1016/j.tca.2006.08.007).

For data set [1] the following is noted: 293.15 K; 101.33 kPa; Liquid; Vibrating tube method.
Data set [2] in a line: refractive index (Na D-line) (dimensionless). As to conditions: 293.15 K; 101.33 kPa; Liquid; refractometer.

Numbers after ± are expanded uncertainties.

In the case of `CC#N` [acetonitrile], the mass density in data set [1] was found to be 782.5 ± 0.2 kg/m3. Besides, the refractive index in data set [2] is given as 1.3442 ± 0.0001.

As to `CCCCCCO` [hexan-1-ol], the mass density in data set [1] worked out at 818.7 ± 0.3 kg/m3. The refractive index in data set [2] is listed as 1.418 ± 0.0002.

As for `CCCCCO` [pentan-1-ol], the mass density in data set [1] turned out to be 815.1 ± 0.5 kg/m3. Further, in data set [2], the refractive index is given as 1.4098 ± 0.0003.
